Measurements as given in US6809096B1, “Phenanthroline-7-one derivatives and their therapeutic uses” (Laboratoire L. Lafon, priority 1999, dated 2004).

Experiments:
HS-MXT tumours = test: In vivo antitumour activity, hormone-sensitive mouse mammary adenocarcinoma MXT (HS-MXT), tumour growth; conditions: 5 mg/kg intraperitoneally; for Tumour area (expressed as %): decrease (−) or increase (+) in HS-MXT tumour area vs control on the 31st day after grafting, 9 administrations
Description: The tests were carried out on models of:
hormone-sensitive mouse mammary adenocarcinoma MXT (HS-MXT),
The model of mouse mammary adenocarcinoma MXT of Watson C. et al. (Cancer Res., 1977; […]: 3344-48), grafted onto B6D2F1/Jico mice aged from 4 to 6 weeks, is derived from the mammary gland milk ducts. Initially hormone-sensitive (HS-MXT model), the differentiated tumour develops in the direction of an undifferentiated hormone-insensitive tumour (HI-MXT model). […] This is the case, for example, with cyclophosphamide, etoposide or adriamycin.
(§1) When the MTD value of a product was determined, its in vivo antitumour activity was characterized at the MTD/2, MTD/4 and MTD/8 doses on the models of mammary adenocarcinoma of mouse origin HS-MXT and of mouse mammary carcinoma HI-MXT and on the model of subcutaneous lymphoma L 1210.
(§2) In all the examples presented below, whatever the model, the control condition is represented by a batch of 9 or 15 mice to which is administered, for 3 consecutive weeks and at the rate of 3 administrations (Monday, Wednesday and Friday) per week, a volume of 0.2 ml of physiological saline comprising the solvent used to dissolve the various compounds of formula (I) and (Ia) used.
i)—The tumour growth was evaluated by measuring twice weekly (Monday and Friday) the area of the grafted HS-MXT, HI-MXT or L 1210 tumours. This area is calculated by multiplying the value of the two greatest perpendicular axes of the tumour. The value of these axes is measured using a sliding caliper.
The influence of the two products CRL 8293 and CRL 8294 on the growth of HS-MXT tumours will be presented below by way of example. Each batch of mice grafted with the HS-MXT tumours relating to a given experimental condition comprises 9 animals.
The product CRL 8293 is administered intraperitoneally. The first injection of the product is carried out on the seventh day postgrafting (D7) at the rate of 3 injections per week (Monday, Wednesday and Friday) for 3 consecutive weeks and at a dose of 5 mg/kg.
The product CRL 8294 is administered alone by the intraperitoneal route. The first injection of the product is carried out on the seventh day postgrafting (D7) at the rate of 3 injections per week (Monday, Wednesday and Friday) for 3 consecutive weeks and at a dose of 5 mg/kg.
The decreases (−) or the increases (+) in the area of the HS-MXT tumours induced with treatments 10 and 20 with respect to the control condition on the 31st day after the tumour grafting, i.e. after the 9 administrations provided in the experimental protocol of the 2 products CRL 8293 and CRL 8294, are shown, as percentage, in the following Table IV. 100% of the control animals are still alive on the 31st day postgrafting.

[1] = Determination of the maximum tolerated dose (MTD); conditions: mouse, in vivo, ip; B6D2F1/Jico mice, single intraperitoneal administration, survival over 14 days, doses 2.5 to 160 mg/kg; read-out: DMT (mg/kg) (Maximum Tolerated Doses)
Description: (§3) 2—Determination of the Maximum Tolerated Dose (MTD)
(§4) The evaluation of the maximum tolerated dose was carried out on B6D2F1/Jico mice aged from 4 to 6 weeks. The compounds were administered intraperitoneally at increasing doses ranging from 2.5 to 160 mg/kg. The value of the MTD (expressed in mg/kg) is determined from the observation of the survival rates of the animals over a period of 14 days after a single administration of the product under consideration. The change in the weight of the animals is also monitored over this period. When that the value of the MTD is greater than 160 mg/kg, the value of the MTD is categorized as 160 mg/kg by default.

lymphoma L 1210 = test: In vivo antitumour activity, subcutaneous lymphoma L 1210, survival (T/C); design: species or system mouse
Description: The model of lymophoma L 1210 is a model of L 1210 leukemia cells of mouse origin grafted subcutaneously in the mouse. They give rise, in 100% of cases, to a rapid-growth subcutaneous solid tumour (L 1210 s.c.).
as §1, §2
ii)—The survival rate of the mice is calculated in the form or a ratio T/C, where: [formula]
This ratio represents the mean survival time of the […] of the batch of treated mice with respect to the mean survival time of the median mouse of the batch of control mice. Thus, a molecule induces a significant (P<0.05) increase in the survival of the animals when the T/C index exceeds 130%. On the other hand, it has a toxic effect when this T/C value is less than 70%. […]

B6D2F1/Jico mice = test: Determination of the maximum tolerated dose (MTD); conditions: mouse, in vivo, ip
Description: as §3, §4

SMILES | growth of the HS-MXT tumours (in words) (HS-MXT tumours) | Tumour area (expressed as %) (HS-MXT tumours) [%] | MTD at 14 days [1] [mg/kg] | mean survival time of the median mouse (in words) (lymphoma L 1210; subcutaneous lymphoma L 1210, vs control mice) | T/C (expressed a %) (lymphoma L 1210; survival ratio treated/control, L 1210 s.c., 1.25 mg/kg intraperitoneally, 3 injections per week for 3 weeks from D7) [%] | DMT (mg/kg) (Maximum Tolerated Doses) (B6D2F1/Jico mice)
O=C1c2cccnc2-c2nccc3ccnc1c23 [CRL 8293, 7H-Pyrido[4,3,2-de][1,10]phenanthroline-7-one] | very highly significant decrease | −45 | 10 |  |  | 
O=C1c2ncccc2-c2nccc3ccnc1c23 [CRL 8294, 7H-Pyrido[4,3,2-de][1,7phenanthroline-7-one] | very highly significant decrease | −64 |  | significant extension | 136 | 10
